According to patent US20100105655A1, “NOVEL COMPOUNDS 515” (ASTRAZENECA AB, priority 2008, published 2010):

molecular target: T1, IGFR kinase (Homo sapiens, UniProt P08069); test: Enzyme assay (c), IGFR kinase, Caliper LabChip; type: biochemical; settings: 30 nM IGFR kinase, 6 uM ATP, 3 uM peptide mix; read-out: IGFR IC50
T1 construct: purchased Millipore
Method: For Echo dosing the solvent was 100% DMSO. A master plate was prepared with 40 ul of 10 mM stock solution of the test compound in DMSO in quadrant 1 of a Labcyte 384 well plate. A 1 in 100 dilution was made from quadrant 1 into quadrant 2 by removing 0.4 ul and adding it to 39.6 ul of DMSO. Subsequent 1 in 100 dilutions were made into quadrant 3 from quadrant 2 and quadrant 4 from quadrant 3.
Multiple 2.5 nl droplets were dispensed from each quadrant of the master plate to generate the dose range that was required in the test. The dose range most commonly used was as follows: 100 uM, 30 uM, 10 uM, 3 uM, 1 uM, 0.3 uM, 0.1 uM, 0.03 uM, 0.01 uM, 0.003 uM, 0.001 uM, 0.0001 uM. Each well was backfilled with dimethyl sulfoxide (DMSO) to a total volume of 120 nl, such that when the enzyme and substrate mix was added the final DMSO concentration was 1%.
DMSO was added to max control wells as 120 nl, minimum control wells were treated with 120 nl of compound at a concentration that inhibited the enzyme activity 100%.
Integration of the substrate and product peaks was carried out using Caliper LabChip software and IC50 curves were calculated using Origin™ software.

T1 sequence (P08069 31-1367): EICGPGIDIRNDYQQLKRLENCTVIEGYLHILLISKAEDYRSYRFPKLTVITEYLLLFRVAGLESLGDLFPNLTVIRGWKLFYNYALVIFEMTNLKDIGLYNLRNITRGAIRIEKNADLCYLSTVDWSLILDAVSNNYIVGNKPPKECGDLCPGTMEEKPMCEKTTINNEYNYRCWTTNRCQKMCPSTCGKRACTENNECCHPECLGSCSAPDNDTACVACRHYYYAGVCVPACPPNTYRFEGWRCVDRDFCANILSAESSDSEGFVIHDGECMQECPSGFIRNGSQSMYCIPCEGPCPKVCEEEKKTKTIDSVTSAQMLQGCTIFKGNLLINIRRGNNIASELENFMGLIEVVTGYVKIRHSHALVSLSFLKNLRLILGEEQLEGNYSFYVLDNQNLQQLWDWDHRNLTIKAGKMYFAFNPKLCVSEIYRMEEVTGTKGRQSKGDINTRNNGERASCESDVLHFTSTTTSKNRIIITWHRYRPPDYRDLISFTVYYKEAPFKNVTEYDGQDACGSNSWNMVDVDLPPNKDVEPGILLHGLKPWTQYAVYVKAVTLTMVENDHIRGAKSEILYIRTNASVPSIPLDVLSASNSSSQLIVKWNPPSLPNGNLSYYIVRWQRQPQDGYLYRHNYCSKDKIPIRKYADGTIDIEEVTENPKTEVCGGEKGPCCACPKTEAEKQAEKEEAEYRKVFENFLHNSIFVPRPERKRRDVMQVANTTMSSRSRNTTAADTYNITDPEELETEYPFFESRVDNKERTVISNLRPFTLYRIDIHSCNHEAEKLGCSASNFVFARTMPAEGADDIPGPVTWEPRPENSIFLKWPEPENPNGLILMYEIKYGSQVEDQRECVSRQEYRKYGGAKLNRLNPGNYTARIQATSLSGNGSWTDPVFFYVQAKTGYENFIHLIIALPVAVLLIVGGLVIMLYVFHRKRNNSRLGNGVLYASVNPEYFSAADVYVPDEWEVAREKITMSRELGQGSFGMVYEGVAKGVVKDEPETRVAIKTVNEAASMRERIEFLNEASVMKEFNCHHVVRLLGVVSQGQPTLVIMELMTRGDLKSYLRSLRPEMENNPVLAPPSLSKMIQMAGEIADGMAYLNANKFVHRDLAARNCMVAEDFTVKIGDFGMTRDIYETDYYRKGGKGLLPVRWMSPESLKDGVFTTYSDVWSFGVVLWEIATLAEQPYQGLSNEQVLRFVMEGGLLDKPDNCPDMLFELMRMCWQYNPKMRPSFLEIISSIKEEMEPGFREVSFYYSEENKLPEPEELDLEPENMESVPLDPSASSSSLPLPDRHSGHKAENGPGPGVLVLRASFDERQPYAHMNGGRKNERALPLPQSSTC

| Compound | IC50 [nM] |
| --- | --- |
| COc1cc(CN2CC[C@H](O)C2)ccc1Nc1ncc(Cl)c(-c2cnc3ccccn23)n1 [Example 20, (3S)-1-[[4-[(5-chloro-4-imidazo[1,2-a]pyridin-3-yl-pyrimidin-2-yl)amino]-3-methoxy-phenyl]methyl]pyrrolidin-3-ol] | 19 |
| COc1cc(CC(CO)CO)ccc1Nc1ncc(Cl)c(-c2cnc3c(F)cccn23)n1 [Example 193, 2-[[4-[[5-chloro-4-(8-fluoroimidazo[1,2-a]pyridin-3-yl)pyrimidin-2-yl]amino]-3-methoxy-phenyl]methyl]propane-1,3-diol] | 25 |
| COc1cc(N2CCN(S(=O)(=O)N(C)C)CC2)ccc1Nc1ncc(Cl)c(-c2cnc3ccccn23)n1 [Example 3.7, 4-[4-[(5-chloro-4-imidazo[1,2-a]pyridin-3-yl-pyrimidin-2-yl)amino]-3-methoxy-phenyl]-N,N-dimethyl-piperazine-1-sulfonamide] | 11 |
| COc1cc(N2CCS(=O)(=O)CC2)ccc1Nc1ncc(Cl)c(-c2cnc3ccccn23)n1 [Example 3.15, 5-chloro-N-[4-(1,1-dioxo-1,4-thiazinan-4-yl)-2-methoxy-phenyl]-4-imidazo[1,2-a]pyridin-3-yl-pyrimidin-2-amine] | 60 |
| COc1cc(N2CCN(C(=O)[C@@H](C)N)CC2)ccc1Nc1ncc(C)c(-c2cnn3ccccc23)n1 [Example 235, (2R)-2-amino-1-[4-[3-methoxy-4-[(5-methyl-4-pyrazolo[1,5-a]pyridin-3-yl-pyrimidin-2-yl)amino]phenyl]piperazin-1-yl]propan-1-one] | 13 |
| COc1cc(N2CCN(C(C)(C)CO)CC2)ccc1Nc1ncc(F)c(-c2cnc3ccccn23)n1 [Example 228, 2-[4-[4-[(5-fluoro-4-imidazo[1,2-a]pyridin-3-yl-pyrimidin-2-yl)amino]-3-methoxy-phenyl]piperazin-1-yl]-2-methyl-propan-1-ol] | 24 |
| COc1cc(OC[C@H]2CCCN2)ccc1Nc1ncc(C)c(-c2cnc3ccccn23)n1 [Example 102, 4-imidazo[1,2-a]pyridin-3-yl-N-[2-methoxy-4-[[(2R)-pyrrolidin-2-yl]methoxy]phenyl]-5-methyl-pyrimidin-2-amine] | 54 |
| COc1cc(N2CCN(CCO)CC2)ccc1Nc1ncc(Br)c(-c2cnc3ccccn23)n1 [Example 115, 2-[4-[4-[(5-bromo-4-imidazo[1,2-a]pyridin-3-yl-pyrimidin-2-yl)amino]-3-methoxy-phenyl]piperazin-1-yl]ethanol] | 5 |
| CC(=O)N1CCN(c2ccc(Nc3ncc(Cl)c(-c4cnc5ccccn45)n3)c(C)c2)CC1 [Example 3.30, 1-[4-[4-[(5-chloro-4-imidazo[1,2-a]pyridin-3-yl-pyrimidin-2-yl)amino]-3-methyl-phenyl]piperazin-1-yl]ethanone] | 12 |
| COc1cc(N2CC[C@@H](N(C)C)C2)ccc1Nc1ncc(F)c(-c2cnc3ccccn23)n1 [Example 76, N-[4-[(3R)-3-dimethylaminopyrrolidin-1-yl]-2-methoxy-phenyl]-5-fluoro-4-imidazo[1,2-a]pyridin-3-yl-pyrimidin-2-amine] | 33 |
| COc1cc(C2CCN(C(C)=O)CC2)ccc1Nc1ncc(C(F)(F)F)c(-c2cnc3ccccn23)n1 [Example 108, 1-[4-[4-[[4-imidazo[1,2-a]pyridin-3-yl-5-(trifluoromethyl)pyrimidin-2-yl]amino]-3-methoxy-phenyl]-1-piperidyl]ethanone] | 14 |
| COc1cc(C2CCN(C(C)=O)CC2)ccc1Nc1ncc(C)c(-c2cnc3c(F)cccn23)n1 [Example 196, 1-[4-[4-[[4-(8-fluoroimidazo[1,2-a]pyridin-3-yl)-5-methyl-pyrimidin-2-yl]amino]-3-methoxy-phenyl]-1-piperidyl]ethanone] | 13 |
| COc1cc(N2CCN(C(=O)[C@@H](O)CO)CC2)ccc1Nc1ncc(Cl)c(-c2cnc3ccccn23)n1 [Example 56, (2S)-1-[4-[4-[(5-chloro-4-imidazo[1,2-a]pyridin-3-yl-pyrimidin-2-yl)amino]-3-methoxy-phenyl]piperazin-1-yl]-2,3-dihydroxy-propan-1-one] | 6 |
| COc1cc(C(CO)CO)ccc1Nc1ncc(Cl)c(-c2cnc3c(F)cccn23)n1 [Example 181, 2-[4-[[5-chloro-4-(8-fluoroimidazo[1,2-a]pyridin-3-yl)pyrimidin-2-yl]amino]-3-methoxy-phenyl]propane-1,3-diol] | 21 |
| COc1cc(N2CCN(CCO)CC2)ccc1Nc1ncc(C)c(-c2cnc3ccccn23)n1 [Example 101, 2-[4-[4-[(4-imidazo[1,2-a]pyridin-3-yl-5-methyl-pyrimidin-2-yl)amino]-3-methoxy-phenyl]piperazin-1-yl]ethanol] | 235 |
| CNCC(=O)N1CCc2cc(OC)c(Nc3ncc(Cl)c(-c4cnn5ccccc45)n3)cc21 [Example 156, 1-[6-[(5-chloro-4-pyrazolo[1,5-a]pyridin-3-yl-pyrimidin-2-yl)amino]-5-methoxy-indolin-1-yl]-2-(methylamino)ethanone] | 4 |

Further lines, results first:

| IC50 [nM] | Compound |
| --- | --- |
| 24 | COc1cc(OC2CN(C(=O)[C@@H](C)OC)C2)ccc1Nc1ncc(Cl)c(-c2cnc3ccccn23)n1 [Example 27.4, (2R)-1-[3-[4-[(5-chloro-4-imidazo[1,2-a]pyridin-3-yl-pyrimidin-2-yl)amino]-3-methoxy-phenoxy]azetidin-1-yl]-2-methoxy-propan-1-one] |
| 23 | COc1cc(OC2CN(C(=O)C3(O)CC3)C2)ccc1Nc1ncc(Cl)c(-c2cnc3ccccn23)n1 [Example 27.5, [3-[4-[(5-chloro-4-imidazo[1,2-a]pyridin-3-yl-pyrimidin-2-yl)amino]-3-methoxy-phenoxy]azetidin-1-yl]-(1-hydroxycyclopropyl)methanone] |
| 11 | COc1cc(N2CCN(C(=O)C(C)(C)O)CC2)ccc1Nc1ncc(Cl)c(-c2cnc3ccccn23)n1 [Example 25.6, 1-[4-[4-[(5-chloro-4-imidazo[1,2-a]pyridin-3-yl-pyrimidin-2-yl)amino]-3-methoxy-phenyl]piperazin-1-yl]-2-hydroxy-2-methyl-propan-1-one] |
| 11 | COc1cc(C2CN(C(=O)[C@H](C)O)C2)ccc1Nc1ncc(Cl)c(-c2cnn3ccccc23)n1 [Example 135A] |
| 5 | COc1cc(N2CCN(C(=O)C3CCCN3)CC2)ccc1Nc1ncc(Cl)c(-c2cnc3ccccn23)n1 (centres unmarked) [Example 24.3, [4-[4-[(5-chloro-4-imidazo[1,2-a]pyridin-3-ylpyrimidin-2-yl)amino]-3-methoxyphenyl]piperazin-1-yl]-pyrrolidin-2-yl methanone] |
| 6 | COc1cc(C2CCN(C(=O)[C@H](C)OC)CC2)ccc1Nc1ncc(Cl)c(-c2cnc3ccccn23)n1 [Example 28.3, (2S)-1-[4-[4-[(5-chloro-4-imidazo[1,2-a]pyridin-3-yl-pyrimidin-2-yl)amino]-3-methoxy-phenyl]-1-piperidyl]-2-methoxy-propan-1-one] |
| 17 | COc1cc(CN2CC[C@@H](O)C2)ccc1Nc1ncc(Cl)c(-c2cnc3ccccn23)n1 [Example 21.18, (3R)-1-[[4-[(5-chloro-4-imidazo[1,2-a]pyridin-3-yl-pyrimidin-2-yl)amino]-3-methoxy-phenyl]methyl]pyrrolidin-3-ol] |
